Measurements: US9499550B2 (BRISTOL-MYERS SQUIBB COMPANY, priority 2012, dated 2016)
Read-outs that look alike come from different tables or passages of the source.

What was measured:
[1] = system: HCV genotype 1a (H77 strain) replicon in HUH-7 cells; assay: HCV replicon luciferase reporter assay, genotype 1a; type: cell-based; settings: Hepatitis C virus, Huh-7, 72 h, 3 days incubation
Text: (§1) Generation of HCV Replicon
(§2) An HCV replicon whole cell system was established as described by Lohmann V, Korner F, Koch J, Herian U, Theilmann L, Bartenschlager R., Science 285(5424):110-3 (1999) and modified to introduce a luciferase reporter, as first described by Krieger et al (Krieger N, Lohmann V, and Bartenschlager R, J. Virol. 75(10):4614-4624 (2001)). CDNA encoding a humanized form of the Renilla luciferase gene and a linker sequence fused directly to the 3′-end of the luciferase gene were introduced into the replicon construct using an Asc1 restriction site located in core, directly upstream of the neomycin marker gene. The adaptive mutation at position 1179 (serine to isoleucine) was also introduced (Blight K J, Kolykhalov, A A, Rice, C M, Science 290(5498):1972-1974). A stable cell line constitutively expressing this HCV replicon construct was generated by first linearizing plasmid DNAs with ScaI. RNA transcripts were synthesized in vitro using the T7 MegaScript transcription kit (Ambion, Austin, Tex.) according to manufacturer's directions. In vitro transcripts of the cDNA were transfected into the human hepatoma cell line, HUH-7. […] Resulting cell lines were characterized for positive and negative strand RNA production and protein production over time.
A stable HCV replicon luciferase reporter cell line representing the genotype 1a H77 strain (Yanagi M, Purcell R H, Emerson S U, et al. Transcripts from a single full-length cDNA clone of hepatitis C virus are infectious when directly transfected into the liver of a chimpanzee. Proc Natl Acad Sci USA 1997; 94(16):8738-8743) was generated as described previously for the genotype 1b(Con1) replicon luciferase cell line. The replicon construct was modified by introducing mutations were introduced into the genes encoding the NS3 helicase domain (proline replaced by leucine at position 1496) and NSSA (serine to isoleucine at position 2204) to improve replication in cell culture.
(§3) HCV Replicon Luciferase Reporter Assay
(§4) HCV replicon luciferase assays were developed to monitor the inhibitory effects of compounds described in the disclosure on HCV genotypes 1a and 1b viral replication. HUH-7 cells, constitutively expressing the HCV replicon, were grown in Dulbecco's Modified Eagle Media (DMEM) (Gibco-BRL) containing 10% Fetal calf serum (FCS) (Sigma) and 1 mg/mL G418 (Gibco-BRL). Compounds were serially diluted 3 folds in DMSO for a twenty-point titration and subsequently transferred to sterile 384-well tissue-culture treated plates (Corning cat #3571). The plates were then seeded with 50 μL of cells at a density of 3.0×10^3 cells/well in DMEM containing 4% FCS (final DMSO concentration at 0.5%). After 3 days incubation at 37° C., cells were analyzed for Renilla Luciferase activity using the EnduRen as substrate (Promega cat #E6485). The EnduRen substrate was diluted in DMEM and then added to the plates to a final concentration of 7.5 μM. The plates were incubated for 2 hrs at 37° C. and then read immediately for 30 seconds with Viewlux Imager (PerkinElmer) using a luminescence program. To assess cytotoxicity of compounds, CC50 values were generated by multiplexing the EnduRen-containing plates with Cell Titer-Blue (Promega, cat # G8082). Cell-Titer Blue (3 μL) was added to each well and incubated for 8 hrs at 37° C. The fluorescence signal from each well was read, with an excitation wavelength at 525/10 nm and an emission wavelength of 598/10 nm, using the Viewlux Imager.
(§5) The EC50 values for compounds were calculated by using a four-parameter logistic equation: y=A+((B−A)/(1+((C/x)^D))), where A and B denotes minimal and maximal % inhibition, respectively, C is the EC50, D is the hill slope and x represents compound concentration.

[2] = system: HCV genotype 1b (Con1) replicon in HUH-7 cells; assay: HCV replicon luciferase reporter assay, genotype 1b; type: cell-based; settings: Hepatitis C virus, Huh-7, 72 h, 3 days incubation
Text: as §1
as §2, with “time. […]” for “time.”
as §3, §4, §5

[3] = HCV genotype 1b replicon luciferase assay, range class, read-out: LE_1b (EC50, range)
[4] = HCV genotype 1a replicon luciferase, read-out: LE_1a (EC50, range)
[5] = HCV genotype 1b replicon luciferase, read-out: LE_1b (EC50, range)

Compound	EC50 [2, 3] [nM]	EC50 [1, 4] [nM]	EC50 [2, 5] [nM]	also measured
COc1ccc2c(O[C@@H]3C[C@H]4C(=O)N[C@]5(C(=O)NS(=O)(=O)C6(CF)CC6)C[C@H]5/C=C\CC[C@H](C)C[C@@H](C)[C@H](NC(=O)OC(C)(C)C)C(=O)N4C3)nc(N(C)C)cc2c1 [Compound 3122, tert-butyl ((2R,6S,7R,9S,13aS,14aR,16aS,Z)-2-((3-(dimethylamino)-6-methoxyisoquinolin-1-yl)oxy)-14a-(((1-(fluoromethyl)cyclopropyl)sulfonyl)carbamoyl)-7,9-dimethyl-5,16-dioxo-1,2,3,5,6,7,8,9,10,11,13a,14,14a,15,16,16a-hexadecahydrocyclopropa[e]pyrrolo[1,2-a][1,4]diazacyclopentadecin-6-yl)carbamate]	4.82 to 103	–	–	EC50 ([1]; HCV genotype 1a replicon luciferase assay, range class, read-out: LE_1a (EC50, range)): 4.82 to 103 nM
CC[C@@H]1C[C@@H](C)CC/C=C\[C@@H]2C[C@@]2(C(=O)NS(=O)(=O)C2CC2)NC(=O)[C@@H]2C[C@@H](Oc3nccc4c5c(ccc34)N(C)CCO5)CN2C(=O)[C@H]1NC(=O)OC(C)(C)C(F)(F)F [Compound 5309, 1,1,1-trifluoro-2-methylpropan-2-yl((2R,6S,7R,9S,13aS,14aR,16aS,Z)-14a-((cyclopropylsulfonyl)carbamoyl)-7-ethyl-9-methyl-2-((4-methyl-3,4-dihydro-2H-[1,4]oxazino[2,3-f]isoquinolin-7-yl)oxy)-5,16-dioxo-1,2,3,5,6,7,8,9,10,11,13a,14,14a,15,16,16a-hexadecahydrocyclopropa[e]pyrrolo[1,2-a][1,4]diazacyclopentadecin-6-yl)carbamate]	–	4.82 to 103	< 5.46	–
C[C@H]1CC/C=C\[C@@H]2C[C@@]2(C(=O)NS(=O)(=O)C2(C)CC2)NC(=O)[C@@H]2C[C@@H](Oc3nc4c(c5ccccc35)OCCC4)CN2C(=O)[C@@H](NC(=O)OC(C)(C)C(C)(F)F)[C@H](C)C1 [Compound 6033, 3,3-difluoro-2-methylbutan-2-yl((2R,6S,7R,9S,13aS,14aR,16aS,Z)-2-((3,4-dihydro-2H-pyrano[3,2-c]isoquinolin-6-yl)oxy)-7,9-dimethyl-14a-(((1-methylcyclopropyl)sulfonyl)carbamoyl)-5,16-dioxo-1,2,3,5,6,7,8,9,10,11,13a,14,14a,15,16,16a-hexadecahydrocyclopropa[e]pyrrolo[1,2-a][1,4]diazacyclopentadecin-6-yl)carbamate]	–	4.82 to 103	< 5.46	EC50 ([1]; HCV genotype 1a replicon luciferase, read-out: LE_1a (EC50)): 10.7 nM; EC50 ([2]; HCV genotype 1b replicon luciferase, read-out: LE_1b (EC50)): 4.38 nM
COc1ccc2c(O[C@@H]3C[C@H]4C(=O)N[C@]5(C(=O)NS(=O)(=O)C6(CF)CC6)C[C@H]5/C=C\CC[C@@H](C)C[C@@H](C)[C@H](NC(=O)OC(C)(C)C(F)(F)F)C(=O)N4C3)ncc(OC)c2c1 [Compound 4154]	–	–	–	EC50 ([1]; GETYPE1A, HCV genotype 1a replicon luciferase, read-out: LE_1a (EC50, range)): < 5.46 nM; EC50 ([2]; GETYPE1B, HCV genotype 1b replicon luciferase, read-out: LE_1b (EC50, range)): < 5.46 nM
COc1cc2c(OC)cnc(O[C@@H]3C[C@H]4C(=O)N[C@]5(C(=O)NS(=O)(=O)C6(CF)CC6)C[C@H]5/C=C\CC[C@@H](C)C[C@@H](C)[C@H](NC(=O)C5(C(F)(F)F)CC5)C(=O)N4C3)c2cc1F [Compound 4119, (2R,6S,7R,9R,13aS,14aR,16aS,Z)-2-(7-fluoro-4,6-dimethoxyisoquinolin-1-yloxy)-N-(1-(fluoromethyl)cyclopropylsulfonyl)-7,9-dimethyl-5,16-dioxo-6-(1-(trifluoromethyl)cyclopropanecarboxamido)-1,2,3,5,6,7,8,9,10,11,13a,14,14a,15,16,16a-hexadecahydrocyclopropa[e]pyrrolo[1,2-a][1,4]diazacyclopentadecine-14a-carboxamide]	–	< 5.46	< 5.46	–
COc1cc2ccccc2c(O[C@@H]2C[C@H]3C(=O)N[C@]4(C(=O)NS(=O)(=O)C5CC5)C[C@H]4/C=C\CC[C@H](C)C[C@@H](C)[C@H](NC(=O)OC(C)(C)C(F)(F)F)C(=O)N3C2)n1 [Compound 6017, 1,1,1-trifluoro-2-methylpropan-2-yl((2R,6S,7R,9S,13aS,14aR,16aS,Z)-14a-((cyclopropylsulfonyl)carbamoyl)-2-((3-methoxyisoquinolin-1-yl)oxy)-7,9-dimethyl-5,16-dioxo-1,2,3,5,6,7,8,9,10,11,13a,14,14a,15,16,16a-hexadecahydrocyclopropa[e]pyrrolo[1,2-a][1,4]diazacyclopentadecin-6-yl)carbamate]	–	< 5.46	< 5.46	–
COc1ccc2c(O[C@@H]3C[C@H]4C(=O)N[C@]5(C(=O)NS(=O)(=O)C6(CF)CC6)C[C@H]5/C=C\CC[C@H](C)C[C@@H](C)[C@H](NC(=O)OC(C)(C)C(C)(F)F)C(=O)N4C3)nccc2c1 [Compound 1142, 3,3-difluoro-2-methylbutan-2-yl((2R,6S,7R,9S,13aS,14aR,16aS,Z)-14a-(((1-(fluoromethyl)cyclopropyl)sulfonyl)carbamoyl)-2-((6-methoxyisoquinolin-1-yl)oxy)-7,9-dimethyl-5,16-dioxo-1,2,3,5,6,7,8,9,10,11,13a,14,14a,15,16,16a-hexadecahydrocyclopropa[e]pyrrolo[1,2-a][1,4]diazacyclopentadecin-6-yl)carbamate]	< 5.46	–	–	–
COCCn1nc(O[C@@H]2C[C@H]3C(=O)N[C@]4(C(=O)NS(=O)(=O)C5CC5)C[C@H]4/C=C\CC[C@H](C)C[C@@H](C)[C@H](NC(=O)OC(C)(C)C(C)(F)F)C(=O)N3C2)c2ccccc2c1=O [Compound 1023, 3,3-difluoro-2-methylbutan-2-yl((2R,6S,7R,9S,13aS,14aR,16aS,Z)-14a-((cyclopropylsulfonyl)carbamoyl)-2-((3-(2-methoxyethyl)-4-oxo-3,4-dihydrophthalazin-1-yl)oxy)-7,9-dimethyl-5,16-dioxo-1,2,3,5,6,7,8,9,10,11,13a,14,14a,15,16,16a-hexadecahydrocyclopropa[e]pyrrolo[1,2-a][1,4]diazacyclopentadecin-6-yl)carbamate]	> 87.4	–	–	–
